# Source: ChEMBL document CHEMBL1782000, “Thiazole-based chalcones as potent antimicrobial agents. Synthesis and biological evaluation” (2011)
# Legend:
# [1] = test system: Talaromyces funiculosus; experiment: Antifungal activity against Penicillium funiculosum ATCC 36839 after 72 hrs by serial dilution method; format: functional; details: ATCC 36839, 72 h
# [2] = test system: Pseudomonas aeruginosa; experiment: Bactericidal activity against Pseudomonas aeruginosa ATCC 27853 after 24 hrs; format: functional; details: ATCC 27853, 24 h
# [3] = test system: Salmonella typhimurium; experiment: Antibacterial activity against Salmonella Typhimurium ATCC 13311 after 24 hrs by microdilution method; format: functional, Salmonella enterica subsp. enterica serovar Typhimurium; details: Salmonella enterica, ATCC 13311, 24 h
# [4] = test system: Talaromyces funiculosus; experiment: Fungicidal activity against Penicillium funiculosum ATCC 36839 after 72 hrs; format: functional; details: ATCC 36839, 72 h
# [5] = test system: Bacillus cereus; experiment: Antibacterial activity against Bacillus cereus clinical isolate after 24 hrs by microdilution method; format: functional
# [6] = test system: Aspergillus ochraceus; experiment: Antifungal activity against Aspergillus ochraceus ATCC 12066 after 72 hrs by serial dilution method; format: functional; details: ATCC 12066, 72 h
# [7] = test system: Aspergillus fumigatus; experiment: Fungicidal activity against Aspergillus fumigatus plant isolate after 72 hrs; format: functional
# [8] = test system: Listeria monocytogenes; experiment: Bactericidal activity against Listeria monocytogenes NCTC 7973 after 24 hrs; format: functional; details: NCTC 7973, 24 h
# [9] = test system: Micrococcus flavus; experiment: Ratio of Ampicillin MIC to compound MIC for Micrococcus flavus ATCC 10240 after 24 hrs; format: functional
# [10] = test system: Staphylococcus aureus; experiment: Bactericidal activity against Staphylococcus aureus ATCC 6538 after 24 hrs; format: functional; details: ATCC 6538, 24 h
# [11] = test system: Aspergillus ochraceus; experiment: Fungicidal activity against Aspergillus ochraceus ATCC 12066 after 72 hrs; format: functional; details: ATCC 12066, 72 h
# [12] = test system: Bacillus cereus; experiment: Bactericidal activity against Bacillus cereus clinical isolate after 24 hrs; format: functional
# [13] = test system: Micrococcus flavus; experiment: Antibacterial activity against Micrococcus flavus ATCC 10240 after 24 hrs by microdilution method; format: functional; details: ATCC 10240, 24 h
# [14] = test system: Enterococcus faecalis; experiment: Antibacterial activity against Enterococcus faecalis isolate obtained from human after 24 hrs by microdilution method; format: functional
# [15] = test system: Micrococcus flavus; experiment: Bactericidal activity against Micrococcus flavus ATCC 10240 after 24 hrs; format: functional; details: ATCC 10240, 24 h
# [16] = test system: Enterococcus faecalis; experiment: Bactericidal activity against Enterococcus faecalis isolate obtained from human after 24 hrs; format: functional
# [17] = test system: Pseudomonas aeruginosa; experiment: Antibacterial activity against Pseudomonas aeruginosa ATCC 27853 after 24 hrs by microdilution method; format: functional; details: ATCC 27853, 24 h
# [18] = test system: Escherichia coli; experiment: Antibacterial activity against Escherichia coli ATCC 35210 after 24 hrs by microdilution method; format: functional; details: ATCC 35210, 24 h
# [19] = test system: Trichoderma viride; experiment: Fungicidal activity against Trichoderma viride IAM 5061 after 72 hrs; format: functional; details: IAM 5061, 72 h
# [20] = test system: Aspergillus fumigatus; experiment: Antifungal activity against Aspergillus fumigatus plant isolate after 72 hrs by serial dilution method; format: functional
# [21] = test system: Listeria monocytogenes; experiment: Antibacterial activity against Listeria monocytogenes NCTC 7973 after 24 hrs by microdilution method; format: functional; details: NCTC 7973, 24 h
# [22] = test system: Salmonella typhimurium; experiment: Bactericidal activity against Salmonella Typhimurium ATCC 13311 after 24 hrs; format: functional, Salmonella enterica subsp. enterica serovar Typhimurium; details: Salmonella enterica, ATCC 13311, 24 h
# [23] = test system: Escherichia coli; experiment: Bactericidal activity against Escherichia coli ATCC 35210 after 24 hrs; format: functional; details: ATCC 35210, 24 h
# [24] = Antifungal activity against Fusarium sporotrichioides IMT 496 after 72 hrs by serial dilution method; format: functional
# [25] = test system: Aspergillus niger; experiment: Fungicidal activity against Aspergillus niger ATCC 6275 after 72 hrs; format: functional; details: ATCC 6275, 72 h
# [26] = test system: Penicillium ochrochloron; experiment: Antifungal activity against Penicillium ochrochloron ATCC 9112 after 72 hrs by serial dilution method; format: functional; details: ATCC 9112, 72 h
# [27] = test system: Aspergillus versicolor; experiment: Fungicidal activity against Aspergillus versicolor ATCC 11730 after 72 hrs; format: functional; details: ATCC 11730, 72 h
# [28] = test system: Trichoderma viride; experiment: Antifungal activity against Trichoderma viride IAM 5061 after 72 hrs by serial dilution method; format: functional; details: IAM 5061, 72 h
# [29] = test system: Penicillium ochrochloron; experiment: Fungicidal activity against Penicillium ochrochloron ATCC 9112 after 72 hrs; format: functional; details: ATCC 9112, 72 h
# [30] = test system: Aspergillus niger; experiment: Antifungal activity against Aspergillus niger ATCC 6275 after 72 hrs by serial dilution method; format: functional; details: ATCC 6275, 72 h
# [31] = test system: Aspergillus versicolor; experiment: Antifungal activity against Aspergillus versicolor ATCC 11730 after 72 hrs by serial dilution method; format: functional; details: ATCC 11730, 72 h
# [32] = test system: Fusarium sporotrichioides; experiment: Fungicidal activity against Fusarium sporotrichioides IMT 496 after 72 hrs; format: functional; details: IMT 496, 72 h
# [33] = test system: Staphylococcus aureus; experiment: Antibacterial activity against Staphylococcus aureus ATCC 6538 after 24 hrs by microdilution method; format: functional; details: ATCC 6538, 24 h
# [34] = test system: Enterococcus faecalis; experiment: Ratio of Ampicillin MIC to compound MIC for Enterococcus faecalis after 24 hrs; format: functional
SMILES,MIC [1],MBC [2],MIC [3],MFC [4],MIC [5],MIC [6],MFC [7],MBC [8],MBC [10],MFC [11],MBC [12],MIC [13],MIC [14],MBC [15],MBC [16],MIC [17],MIC [18],MFC [19],MIC [20],MIC [21],further results
CNc1nc(C)c(C(=O)/C=C/c2ccc(Cl)cc2)s1,170 µM,342 µM,290 µM,340 µM,342 µM,340 µM,340 µM,513 µM,684 µM,513 µM,513 µM,85.4 µM,171 µM,342 µM,342 µM,256 µM,290 µM,340 µM,170 µM,342 µM,Ratio [9]: 3; MBC [22]: 342 µM; MBC [23]: 342 µM; MIC (10'-2 umol/ml) [24]: 17; MFC [25]: 340 µM; MIC [26]: 340 µM; MFC [27]: 340 µM; MIC [28]: 170 µM; MFC [29]: 513 µM; MIC [30]: 170 µM; MIC [31]: 170 µM; MFC [32]: 170 µM; MIC [33]: 513 µM
CNc1nc(C)c(C(=O)/C=C/c2ccc(OC)cc2)s1,340 µM,513 µM,342 µM,513 µM,290 µM,340 µM,513 µM,513 µM,342 µM,513 µM,342 µM,85.4 µM,171 µM,171 µM,171 µM,342 µM,342 µM,513 µM,170 µM,342 µM,Ratio [9]: 3; MBC [22]: 513 µM; MBC [23]: 513 µM; MIC (10'-2 umol/ml) [24]: 34; MFC [25]: 683 µM; MIC [26]: 340 µM; MFC [27]: 513 µM; MIC [28]: 170 µM; MFC [29]: 513 µM; MIC [30]: 340 µM; MIC [31]: 170 µM; MFC [32]: 513 µM; MIC [33]: 290 µM
CNc1nc(C)c(C(=O)/C=C/c2ccccc2Cl)s1,306 µM,306 µM,306 µM,612 µM,229 µM,306 µM,612 µM,459 µM,459 µM,459 µM,306 µM,229 µM,76.4 µM,260 µM,153 µM,260 µM,229 µM,306 µM,306 µM,306 µM,MBC [22]: 459 µM; MBC [23]: 306 µM; Ratio [34]: 3; MIC (10'-2 umol/ml) [24]: 15.3; MFC [25]: 612 µM; MIC [26]: 306 µM; MFC [27]: 459 µM; MIC [28]: 153 µM; MFC [29]: 459 µM; MIC [30]: 306 µM; MIC [31]: 153 µM; MFC [32]: 459 µM; MIC [33]: 306 µM
